The record followed here is patent US20080132415A1, “Method For Increasing Maize Yields” (priority 2004, published 2008).

The subject of series [1] is Pioneer 33P66 hybrid corn. Particulars: applied at V6 growth stage at 1x field use rates, isoxadifen 37 g/ha where included. The method, then: The study was conducted in Bloomington, DeKalb and Urbana, Ill. to evaluate the crop response when isoxadifen was used with postemergence corn herbicides. Two hybrid corn species with different levels of tolerance were used in the study: Pioneer 33K81, a species sensitive to plant growth regulators (PGRs), isoxazole, amides and sulfonylureas (SUs); and Pioneer 33P66, a tolerant species. Plots were kept weed-free to eliminate any competition from weeds.
The following herbicides and their respective field use rates were used in the study:
rimsufuron—26 g/ha; nicosulfuron+rimsulfuron—39 g/ha; foramsulfuron—37 g/ha; diflufenzopyr+dicamba—294 g/ha; mesotrione—105 g/ha; and dicamba—560 g/ha. One or more of the herbicides were used with or without isoxadifen—37 g/ha. All herbicides were applied at the 1× labeled field use rates.
Timing of the application of the compounds was at the V6 growth stage (i.e., when there were six visible collars of the corn). Additionally, methylated seed oil (MSO)+28% […] (UAN) were applied at a concentration of 1% v/v+2.5% v/v.

Series [2] concerns Pioneer 33K81 hybrid corn. The series can be described thus: Field study of isoxadifen with postemergence corn herbicides (Example 1), hybrid Pioneer 33K81. Format: in vivo.
From the text: Timing of the application of the compounds was at the V6 growth stage (i.e., when there were six visible collars of the corn). Additionally, methylated seed oil (MSO)+28% ureas and ammonium sulfate (UAN) were applied at a concentration of 1% v/v+2.5% v/v.
Series [3] relates to corn hybrids Pioneer 33K81 and Pioneer 33P66. The series can be described thus: Field study of isoxadifen with postemergence corn herbicides (Example 1), both hybrids or hybrid not stated. The series is classed as in vivo.
The test system of series [4] is Golden Harvest hybrid corn. The series is classed as in vivo. An excerpt:
The hybrid corn species Golden Harvest was used in the study.
On one or more of the herbicides were used in combination with the insecticide chlorpyrifos—841 g/ha and with or without isoxadifen—37 g/ha.
A CO2 backpack sprayer was used to apply the compounds at 187 L/ha at 247 kPa.

The mark [5] stands for this setting: herbicide in combination with chlorpyrifos 841 g/ha and isoxadifen 37 g/ha, seven days post application.
Where [6] appears, read: herbicide in combination with chlorpyrifos 841 g/ha, without isoxadifen, seven days post application.
Where [7] appears, read: herbicide in combination with chlorpyrifos, without isoxadifen.
Where [8] appears, read: percentage of control, herbicide in combination with chlorpyrifos 841 g/ha and isoxadifen 37 g/ha.
[9] abbreviates: percentage of control, herbicide in combination with chlorpyrifos 841 g/ha, without isoxadifen.

SMILES strings stand for the structures. Where two headings read alike, the source gives them in different places. Marks after values point to notes of the source that are not given here.

Turning to `COc1c(Cl)ccc(Cl)c1C(=O)O` [Dicamba, dicamba], in series [1] (7 days post application), the “PERCENTAGE OF CORN INJURY Pioneer 33P66” value stood at 36%. Further, the “CORN YIELD - PERCENTAGE OF CONTROL Pioneer 33P66” value in series [1] (percentage of control) was 89%. For the same compound, the “PERCENTAGE OF CORN INJURY Pioneer 33K81” value in series [2] (7 days post application, applied at V6 growth stage at 1x field use rates, isoxadifen 37 g/ha where included) was 25%. Also, the “CORN YIELD - PERCENTAGE OF CONTROL Pioneer 33K81” value in series [2] (percentage of control, applied at V6 growth stage at 1x field use rates, isoxadifen 37 g/ha where included) is given as 81%. Moreover, the “crop injury when tank-mixed with isoxadifen, compared with the same herbicide without isoxadifen” value in series [3] (both hybrids, 7 days after treatment) is recorded as “less crop injury”. In addition, in series [4] (in vivo), the “CORN INJURY Chlor + Isoxadifen” value is recorded as 37 * %, the “CORN INJURY Chlorpyrifos” value stood at 65%, the “CORN YIELD Chlor + Isoxadifen” value was 86 * % and the “CORN YIELD Chlorpyrifos” value amounted to 75%. In addition, in series [4] (in vivo), the “corn injury compared to the application of the same combination and isoxadifen” value (“corn injury compared to the application” for short) is “significantly more corn injury”; the “corn yield compared to the application of the same combination and isoxadifen” value (from here on “corn yield compared to the application”) is “significantly smaller corn yield”.
As to `COc1cc(OC)nc(NC(=O)NS(=O)(=O)c2cc(NC=O)ccc2C(=O)N(C)C)n1` [Foramsulfuron, foramsulfuron], in series [4] (setting [5]), the “CORN INJURY Chlor + Isoxadifen” value is 37 * %. Also, the “CORN INJURY Chlorpyrifos” value in series [4] (setting [6]) is on record as 47%. Besides, in series [4] (setting [7]), the “corn injury compared to the application” value is recorded as “significantly more corn injury”; the “corn yield compared to the application” value is “significantly smaller corn yield”. Moreover, in series [4] (setting [8]), the “CORN YIELD Chlor + Isoxadifen” value is 92 * %. For the same compound, in series [4] (setting [9]), the “CORN YIELD Chlorpyrifos” value was determined as 82%.
Regarding `CS(=O)(=O)c1ccc(C(=O)C2C(=O)CCCC2=O)c([N+](=O)[O-])c1` [Mesotrione, mesotrione], the “difference in adding isoxadifen” value in series [3] (hybrid not stated, data not shown) is “no significant difference”. For the same compound, the “CORN INJURY Chlor + Isoxadifen” value in series [4] (setting [5]) is given as 12 * %. For the same compound, in series [4] (setting [6]), the “CORN INJURY Chlorpyrifos” value was found to be 34%. Moreover, in series [4] (setting [7]), the “corn injury compared to the application” value is given as “significantly more corn injury”; the “corn yield compared to the application” value is “no significant difference”. For the same compound, in series [4] (setting [8]), the “CORN YIELD Chlor + Isoxadifen” value was determined as 97%. Moreover, the “CORN YIELD Chlorpyrifos” value in series [4] (setting [9]) is on record as 97%.
On to `CCS(=O)(=O)c1cccnc1S(=O)(=O)NC(=O)Nc1nc(OC)cc(OC)n1` [Rimsulfuron, rimsulfuron], for which, in series [2] (P33K81 hybrid corn, addition of isoxadifen, data not shown), the “crop injury when tank-mixed with isoxadifen” value is recorded as “less crop injury”. For the same compound, in series [4] (setting [5]), the “CORN INJURY Chlor + Isoxadifen” value is 45%. Moreover, the “CORN INJURY Chlorpyrifos” value in series [4] (setting [6]) is on record as 37%. Also, in series [4] (setting [7]), the “corn injury compared to the application” value is recorded as “no significant difference”; the “corn yield compared to the application” value is “significantly smaller corn yield”. For the same compound, the “CORN YIELD Chlor + Isoxadifen” value in series [4] (setting [8]) is listed as 95 * %. Further, the “CORN YIELD Chlorpyrifos” value in series [4] (setting [9]) is on record as 65%.
